Values joined by “and” are separate entries in the source; they are usually repeats but may differ in a detail not shown here. Equal values may be shown once.
Test system: P. falciparum 3D7 growth, pLDH absorbance
Test: blood-stage malaria parasite growth potency – strain 3D7, dose response (AID 2305)

Row | SMILES | IC50
1 | CNC(=O)C1Cc2c([nH]c3ccc(Br)cc23)C2(CCN(CCc3ccccc3)CC2)N1 (centres undefined) | 920 nM
2 | COc1cccc(-c2ccc(C(=O)NC3CCN(Cc4ccc(N(C)C)cc4)CC3)s2)c1 | 1390 nM
3 | CC(C)c1ccc(NC(=O)c2ccc(C(=O)NCC3CCN(CC4CCCCC4)CC3)cc2)cc1 | 900 nM
4 | O=C(Nc1cc(C(F)(F)F)ccc1Cl)c1ccc(Cn2cc(Br)cn2)cc1 | 1350 nM
5 | CCCC(C)Nc1nc(C)cc(N[C@@H](Cc2ccccc2)C(=O)Nc2ccccc2)n1 (some centres undefined) | 860 nM
6 | COc1cc2ccccc2c(CON2C(N)=NC(N)=NC2(C)C)c1OC | 50 nM
7 | CN(C)CCNC(=O)c1ccc(-c2ccc3c(Nc4ccccc4)c(C(N)=O)cnc3c2)cc1 | 730 nM
8 | CC(=O)Nc1ccc(-c2nc3ccc(-c4nc5ccc(NC(C)=O)cc5[nH]4)cc3[nH]2)cc1 | 240 nM
9 | CN(c1cc(NC(=O)c2ccc(F)cc2)ccn1)C1CCN(Cc2cccc(C#N)c2)CC1 | 830 nM
10 | COc1cc(Nc2nccc(N3CCC(NS(=O)(=O)c4ccc(NC(C)=O)cc4)CC3)n2)cc(OC)c1OC | 970 nM
11 | CC1(C(=O)Nc2ccc([N+](=O)[O-])cc2O)CC2c3ccccc3C1c1ccccc12 (centres undefined) | 710 nM
12 | CC(C)OC(=O)c1ccc(NC(=O)N[C@@H](Cc2ccc(O)cc2)C(=O)NC2CCC(CCN3[C@@H]4CC[C@H]3c3ccccc34)CC2)cc1 (some centres undefined) | 830 nM
13 | Cc1occc1C(=O)Nc1nc(-c2ccccn2)nc2ccsc12 | 900 nM
14 | CN1CCCc2ccc(NC(=O)c3cc(-c4ccc(Cl)cc4)cs3)cc2C1 | 790 nM
15 | CN(CCCCNC(=O)c1cc2ccccc2[nH]1)C1CC2(CCN(C(=O)OC(C)(C)C)CC2)c2ccccc21 (centres undefined) | 930 nM
16 | CNC(=O)c1ccccc1Nc1nc(Nc2cccnc2)ncc1C | 100 nM
17 | CCCCCN1CCC(NS(=O)(=O)c2cccc(C(=O)Nc3ccc(Cl)cc3)c2)CC1 | 920 nM
18 | CCC(C)OC(=O)C1=C(C)NC2=C(C(=O)CC(c3ccc(OC)c(OC)c3)C2)C1c1cccc(O)c1 (centres undefined) | 190 nM
19 | Cc1nc(-c2nc(NCCc3ccncc3)ncc2-c2ccsc2)sc1C | 300 nM
20 | CCCN(CC(=O)NCCc1ccccc1)c1ccc(C#N)c2ccccc12 | 500 nM
21 | O=C(Nc1ccc(C(=O)Oc2cccc3ccccc23)cc1)N[C@@H](Cc1ccc(O)cc1)C(=O)NC1CCN(Cc2ccc(O)cc2)C1 (some centres undefined) | 910 nM
22 | Cc1ccc(C2CC(c3cccs3)=NN2C(=O)c2ccc(Br)o2)cc1 (centres undefined) | 890 nM
23 | Nc1ccc2[nH]cc(C3CCN(CC4CCC(NC(=O)/C=C/c5ccc(Cl)c(Cl)c5)CC4)CC3)c2n1 (centres undefined) | 730 nM
24 | Nc1c2c(nc3ccccc13)C(=Cc1ccc(O)cc1)CCC2 | 180 nM
25 | COc1cccc(Nc2nc(NCCO)c3ccccc3n2)c1 | 150 nM

Row | SMILES | IC50
26 | COc1ccc(CCN2CCC(CN(C)Cc3cnn(-c4ccccc4)c3)CC2)cc1 | 1160 nM
27 | O=C(Cc1cnc[nH]1)Nc1ccc(-c2ccc(-c3nc4ccc(F)cc4[nH]3)cc2)cc1 | 730 nM
28 | COc1ccc(CCNC(=O)c2cnc3c(c2)nc(-c2cnc(-c4ccccc4)[nH]2)n3CCc2cnc[nH]2)cc1 | 970 nM
29 | CCOc1ccc(Br)cc1/C=C/C(=O)Nc1ccc2c(c1)CN(C)CCC2 | 820 nM
30 | Cc1cc(NC(=O)c2ccc(-c3ccccc3)cc2)no1 | 1020 nM
31 | COc1cccc(Cc2cnc3nc(N)nc(N)c3c2C)c1 | 170 nM
32 | O=C(NC1CCN(Cc2ccccc2)CC1)c1cccc(-c2nc3ccc(Cl)cc3[nH]2)c1 | 860 nM
33 | Nc1ccc(-c2nc3c(ccc4ccccc43)[nH]2)cc1 | 940 nM
34 | COc1ccc(CN2CCC(NCc3cccc(C(F)(F)F)c3)CC2)cc1 | 750 nM
35 | Cc1cc(N)c2cc(NC(=O)c3cc(C(F)(F)F)cc(C(F)(F)F)c3)ccc2n1 | 90 nM
36 | CCN(CCCN1CCCCC1)c1cc(C)nc(Nc2cccc(C(F)(F)F)c2C)n1 | 610 nM
37 | CCN(CC)CCCCNc1cc(-c2[nH]c(C(C)(C)C)nc2-c2ccc3cc(OC)ccc3c2)ccn1 | 530 nM
38 | c1ccc(COc2ccnc(NCCCOc3cccc(CN4CCCCC4)c3)c2)cc1 | 990 nM
39 | N#Cc1c(Cl)cccc1Oc1ccc(S(=O)(=O)N2CCC(CN3CCC(c4c[nH]c5ccccc45)CC3)CC2)cc1 | 750 nM
40 | O=S(=O)(c1cccc(C(F)(F)F)c1)N1CCC(CO)(Cc2cccc(C(F)(F)F)c2)CC1 | 960 nM
41 | CN(C)CCOc1ccc(-c2cc(-c3ccc(Cl)c(O)c3)c(-c3ccncc3)[nH]2)cc1 | 580 nM
42 | Cc1ccc(O)cc1Nc1ccnc2cc(-c3csc(CN(C)CCN(C)C)n3)ccc12 | 790 nM
43 | Cc1ccccc1C1=CCN(CCCN2c3ccccc3Sc3ccc(Cl)cc32)CC1 | 870 nM
44 | COc1cc2nc(NCCn3ccnc3C)nc(NCCc3ccccc3)c2cc1OC | 730 nM
45 | Fc1cc(Cl)ccc1Nc1ccnc2cc(-c3ccc(CN4CCSCC4)o3)ccc12 | 780 nM
46 | Nc1ncc(-c2ccc3[nH]ccc3c2)c2ccc(-c3ccncc3)cc12 | 540 nM
47 | CN1CCN(c2cc3c(cc2Cl)CCN3C(=O)Cc2ccc(NC(=O)Nc3cccc4ccccc34)cc2)CC1 | 970 nM
48 | O=C(/C=C/c1c(Cl)cccc1Cl)NC1CCC(CN2CCC(c3c[nH]c4ccccc34)CC2)CC1 (centres undefined) | 370 nM and 810 nM
49 | N#Cc1cccc(NC(=O)Nc2ccc(-c3cccc(-c4nc5ccc(F)cc5[nH]4)c3)cc2)c1 | 270 nM
50 | Cc1ccc2nc(-c3cc(-c4ccc(CO)cc4)cnc3N)[nH]c2c1 | 860 nM

Row | SMILES | IC50
51 | Cc1cc(OCCCN2CCCCC2)ccc1NC(=O)COc1ccc(Cl)cc1C(=O)c1cc(Cl)cc(C#N)c1 | 890 nM
52 | CCCc1c(C(=O)Nc2ccc3c(c2)CCN(C2CCC2)CC3)cnn1-c1ccc(Cl)cc1 | 860 nM
53 | O=C(NC1CCC(CN2CCC(c3c[nH]c4ccccc34)CC2)CC1)C1(O)c2ccccc2-c2ccccc21 (centres undefined) | 1190 nM
54 | COc1ccc(NC(=O)C2c3ccccc3C(=O)N(C3CCCC3)C2c2cccs2)c(OC)c1 (centres undefined) | 1480 nM
55 | CCN(CC)CCCC(C)Nc1c2ccccc2nc2ccc3ccccc3c12 (centres undefined) | 1040 nM
56 | CCOC(=O)N1CCN(CCCNc2c3ccc(Cl)cc3nc3ccc(OC)cc23)CC1 | 100 nM
57 | C#CCN(Cc1cc2c(=O)[nH]c(N)nc2cc1C)c1ccc(C(=O)N[C@@H](CCC(=O)O)C(=O)O)cc1 | 630 nM
58 | CN(C)CCNC(=O)[C@H](CC1CCCCC1)NC(=O)c1ccc(O)c(-c2ccc(Cl)c(Cl)c2)c1 | 770 nM
59 | O=C(NCc1ccc(F)cc1)c1cc(Br)cc(N2CCN(c3ccncc3)CC2)c1 | 1230 nM
60 | O=C(NC(=O)c1ccccc1)NC1CCN(c2ccnc3cc(Cl)ccc23)C1 (centres undefined) | 580 nM
61 | O=C(Nc1cccc(-c2cccc(-c3nc4ccccc4[nH]3)c2)c1)Nc1ccc2c(c1)OCO2 | 170 nM
62 | COc1ccc(S(=O)(=O)N2CCCC(C)C2)cc1N1CCN(C(=O)c2ccc([N+](=O)[O-])o2)CC1 (centres undefined) | 1250 nM
63 | Oc1ccc(CCNc2nc(NCc3ccccc3Oc3ccc(C(F)(F)F)cc3)nc(N3CCNCC3)n2)cc1 | 1160 nM
64 | COc1ccc(-c2nc3nc4ccccc4cc3[nH]2)c(OCC(O)CNC(C)C)c1 (centres undefined) | 690 nM
65 | COc1ccc(C2(CNCC(O)c3cccc([N+](=O)[O-])c3)CCCC2)cc1OC (centres undefined) | 890 nM
66 | C#CCOc1ccc2ccccc2c1CNCCCCCCNCc1c(OCC#C)ccc2ccccc12 | 780 nM
67 | COc1ccc2c(OC)cccc2c1CNCCCCCCNCc1c(OC)ccc2c(OC)cccc12 | 690 nM
68 | Cc1ccccc1C1CCN(c2ncc(C(=O)NC3CC3)cc2Cl)CC1 | 700 nM
69 | CCOC(=O)c1ccc(NC(=O)Nc2ccc(-c3cccc(-c4nc5ccc(F)cc5[nH]4)c3)cc2)cc1 | 120 nM
70 | CCC1(CC)N=C(N)N=C(N)N1OCc1ccc(Cl)c(Cl)c1 | 60 nM
71 | O=C(NC1CCC1)C1CCN(C(c2ccccc2)c2cc(F)cc(F)c2)CC1 (centres undefined) | 800 nM
72 | CCCCCCc1cnc2nc(N)nc(N)c2c1C | 190 nM
73 | c1ccc(CN2CCC(NCc3ccc(-c4ccc(CNCc5cccnc5)cn4)cc3)CC2)cc1 | 880 nM
74 | Cc1cccc2[nH]c(-c3cccc(-c4ccc(CNCc5cccc(N)c5)cc4)c3)nc12 | 260 nM
75 | O=C(CC(=O)C(F)(F)F)c1ccc2c(c1)OCO2 | 740 nM

Row | SMILES | IC50
76 | CC(C)(C)c1ccc(NC(=O)c2ccc(CN3CCCN(Cc4cccc(Cl)c4)CC3)cc2)cc1 | 970 nM
77 | COc1ccc(C=NNc2cc(C)nc3c(C)cccc23)c2ccccc12 | 220 nM
78 | CCN1CCN(c2cc(C)c3cc(NC(=O)c4ccc(OC)c(OC)c4)ccc3n2)CC1 | 1030 nM
79 | N=C1C=C(N)C(=O)c2ccccc21 | 1050 nM
80 | CCN(C)CCCn1c(N(C)C)nc2cc(-n3cnc4cc(-c5ccc(Cl)cc5)sc4c3=O)ccc21 | 1090 nM
81 | CC1(C)[C@H]2CC[C@@H](CNc3nc(NCCc4cnc[nH]4)nc(Nc4ccc5c(c4)OCO5)n3)[C@@H]1C2 | 540 nM
82 | CN(C)Cc1cccc(-c2ccc(NC(=O)c3ccc4c(=O)n(CCN5CCCCC5)cnc4c3)cc2)c1 | 650 nM
83 | CC(Cc1ccc(NC(=O)CCCc2ccccc2)cc1)NCCc1cccc(Cl)c1 (centres undefined) | 950 nM
84 | O=C(Cc1cnc[nH]1)Nc1ccc(-c2ccc(-c3nc4ccc(C(F)(F)F)cc4[nH]3)s2)cc1 | 660 nM
85 | COc1cc(C)ccc1S(=O)(=O)N1CCCCC(c2ccc(C(F)(F)F)cc2)=N1 | 770 nM
86 | Cc1cc2ccc(-c3cccc(CN)c3)cc2nc1N | 760 nM
87 | CN1CCC(C(=O)Nc2cccc(-c3ccc(-c4nc5ccccc5[nH]4)cc3)c2)CC1 | 1090 nM
88 | COc1ccc(CCNCCCCCNCCc2ccc(Cl)cc2)cc1OC | 740 nM
89 | Oc1ccc(CCNc2nc(NCc3ccccc3-c3ccc(C(F)(F)F)cc3)nc(NC3CCNCC3)n2)cc1 | 920 nM
90 | COc1cc(Nc2ccnc3cc(-c4ccccn4)ccc23)cc(OC)c1OC | 910 nM
91 | Cc1ccc(-c2nnc3c4ccccc4c(C)nn23)cc1S(=O)(=O)N1CCN(CCO)CC1 | 670 nM
92 | c1cc(Cc2ccc(Nc3c4ccccc4nc4ccccc34)cc2)cc(Nc2c3ccccc3nc3ccccc23)c1 | 140 nM
93 | Cc1cccc2[nH]c(-c3ccc(-c4cccc(CNCCN(C)C)c4)cc3)nc12 | 680 nM
94 | COc1cccc(Nc2nc(N)c3ccccc3n2)c1 | 930 nM
95 | O=C(/C=C/c1ccc(Cl)c(Cl)c1)Nc1cccc(CN2CCC(c3c[nH]c4ccccc34)CC2)c1 | 670 nM
96 | O=C(CN1CCC(NCc2cnc(-c3ccc(Cl)cc3)[nH]2)CC1)N1CCc2ccccc21 | 650 nM
97 | Cc1cc(=O)c(-c2ccc(Oc3ccc(Cl)cc3Cl)cc2)c(C)[nH]1 | 840 nM
98 | O=C(Nc1ccc(OC2CCN(Cc3ccc(F)cc3)CC2)c(Cl)c1)c1ccccc1 | 790 nM
99 | O=C(/C=C/c1ccc(Cl)c(Cl)c1)N1CCC(CCN2CCc3[nH]c4ccccc4c3C2)CC1 | 890 nM
